Columns and labels:
Format in all cases: in vivo
[1] = system: sweet sensitive panelists; assay: Comparative sensory evaluation of sweetness enhancers in sweetener solution or water (Example 1)
Method: Comparative sensory evaluation of sweetness enhancers in 2 or 7% sucrose
The test samples contained the potential sweetness enhancers in 0% sucrose (water), 2% sucrose, or 7% sucrose, and control samples of 0%, 2% and 7% sucrose without any additive. The sensory evaluations were conducted as follows. All samples were presented at ambient temperature in 15 ml aliquots to panels consisting of 5-9 sweet sensitive subjects of varying sweet sensitivity. After tasting each sample, the mouth was rinsed thoroughly with water at ambient temperature prior to tasting the next sample. The sucrose positive control (2% or 7%) was presented first and served as the sweetness reference to which all sweetness enhancer/sucrose combinations were directly compared.
One tasting sequence included tasting the sucrose control first, rinsing with water, tasting the sweetness enhancer/sucrose sample, rinsing with water followed by tasting the sucrose control again. Once the sequence was completed, each panelist chose the sample which was sweeter and evaluated the sweetness of each sample relative to one another.
In a second tasting sequence, this same procedure was followed for the water negative control versus the sweetness enhancer/water samples to determine the sweet taste due to the sweetness enhancer itself at each tested concentration.
Panelists evaluated the sweetness of the sweetness enhancer in water for each concentration. For their evaluation, panelists were allowed to compare any perceived sweetness of the sweetness enhancer to the 2% or 7% sucrose control to determine the relative intensity of sweetness. Mild sweet taste corresponds to the taste of 2% sucrose, strong sweet taste corresponds to the taste of 7% sucrose.
Alternatively to sucrose, the evaluation may be performed with another sweetener, for example, high fructose (55%) corn syrup (HFCS, containing 55% fructose and 45% glucose), erythritol, sucralose, aspartame, or acesulfame potassium (AceK).

[2] = system: sweet sensitive panelists; assay: Ranking test, sweetness isointensity of enhancer in sweetener solution (Example 3a)
Method: Ranking Tests to Determine the Sweetness Isointensity of Sweetness Enhancers to Sucrose Solutions
For comparative ranking, samples of 0.5%, 1%, 1.5%, 7%, 8%, 9%, 10% and 11% sucrose solutions were prepared.
3a) Sweetness Isointensity of Sweetness Enhancer in Sucrose Solutions
The sensory evaluation was conducted using a ranking method. Samples at ambient temperature were randomly presented in 15 ml blind aliquots (unidentifiable by panelists). Panels consisted of 10 sweet sensitive subjects and samples were presented in 4 replications over 2 sessions. After tasting each sample, the mouth was rinsed thoroughly with water at ambient temperature prior to tasting the next sample. Panelists were presented with 7%, 8%, 9%, 10%, 11% sucrose samples and a sixth sample of 7% sucrose with a sweetness enhancer in a concentration near its sweetness detection threshold. They were asked to rank the samples from low to high with respect to perceived sweet taste. R-indices were calculated for 7% sucrose with the sweetness enhancer versus 7%, 8%, 9%, 10% or 11% sucrose.

[3] = system: sweet sensitive panelists; assay: Ranking test, near threshold sweetness isointensity of enhancer in water (Example 3b)
Method: The sensory evaluation was conducted using a ranking method. Samples at ambient temperature were randomly presented in 15 ml blind aliquots (unidentifiable by panelists). […] After tasting each sample, the mouth was rinsed thoroughly with water at ambient temperature prior to tasting the next sample. […] They were asked to rank the samples from low to high with respect to perceived sweet taste.

[4] = system: sweet sensitive panelists; assay: Paired comparison of sweetness enhancers in water versus sucrose (Example 4, modified)
Method: Paired Comparisons of Sweetness Enhancers and Mixtures Thereof in Water and 7% Sucrose
Samples of sweetness enhancers were prepared in water or 7% sucrose. One, two or three sweetness enhancers were used in a sample. All samples were presented to panelists at ambient temperature. The sensory evaluation was conducted using a paired comparison method. […] Samples were paired randomly and presented in unidentifiable pairs of two (left and right) to the panelists in random order. The sample on the left was tasted first, followed by rinsing the mouth with water, then tasting the sample on the right. Once completing the sequence, each panelist ranked the pair of samples for sweetness then evaluated samples with respect to one another with the following descriptors (in ascending order): […]

sweet sensitive subjects = assay: Sweetness quality evaluation (time of onset, localization, duration)
Method: (§1) Rebaudioside A (99%+, purified from plant extract, Sweet Aloha Farms, LLC) (1 ppm, 10 ppm, 20 ppm, 30 ppm) in 2% sucrose samples was evaluated for the qualities of the sweetness of the samples (time of onset, localization, duration). The sensory evaluations were conducted as follows. All samples were presented at ambient temperature in 15 ml aliquots and presented blindly to sweet sensitive subjects of varying sweet sensitivity. Subjects tasted the samples and were asked to evaluate the quality of sweetness. Sucrose solutions (2% and 7%) were presented as references.
Rebaudioside A (99%+, purified from plant extract, Sweet Aloha Farms, LLC) (1 ppm, 10 ppm, 20 ppm, 30 ppm) in 7% sucrose samples were evaluated for the qualities of the sweetness of the samples (time of onset, localization, duration). The sensory evaluations were conducted as follows. All samples were presented at ambient temperature in 15 ml aliquots and presented blindly to sweet sensitive subjects of varying sweet sensitivity. Subjects tasted the samples and were asked to evaluate the quality of the sweetness. Sucrose solutions (2% and 7%) were presented as references to evaluate the sweetness of the rebaudioside A samples.
as §1, with “Stevioside extract (95%+,” for “Rebaudioside A (99%+,”, “Apin Chemicals) (20” for “Sweet Aloha Farms, LLC) (1 ppm, 10 ppm, 20”, “30 ppm, 40 ppm, 50” for “30”, “ppm) was evaluated” for “ppm)”, “sucrose” for “sucrose samples was evaluated”, “sweetness qualities.” for “quality of sweetness.”
Stevioside (20 ppm, 30 ppm, 40 ppm, 50 ppm) was evaluated in 7% sucrose for the qualities of the sweetness of the samples (time of onset, localization, duration). The sensory evaluations were conducted as follows. All samples were presented at ambient temperature in 15 ml aliquots and presented blindly to sweet sensitive subjects of varying sweet sensitivity. Subjects tasted the samples and were asked to evaluate the sweetness qualities. Sucrose solutions (2% and 7%) were presented as references to evaluate the sweetness of the stevioside samples.

[5] = 45 ppm in water vs 0.5% sucrose
[6] = 60 ppm in water vs 1.5% sucrose
[7] = 50 ppm in water vs 0.5% sucrose

Compound: C[C@@H]1O[C@@H](OC2C(Oc3cc(O)c(C(=O)CCc4ccc(O)cc4)c(O)c3)OC(CO)C(O)C2O)[C@H](O)[C@H](O)[C@H]1O (stereo in doubt) [NarDHC, -[4-[[2-O-(6-Deoxy-L-mannopyranosyl)-D-glucopyranosyl]oxy]-2,6-dihydroxyphenyl]-3-(4-hydroxyphenyl)-1-propanone]
- Sensory evaluation of sweetness intensity ([1]; 20 ppm in 2% sucrose): notably sweeter than sucrose control
- Sensory evaluation of sweetness intensity ([1]; 20 ppm in water): barely perceived delayed sweetness vs. 2% sucrose
- Sensory evaluation of sweetness intensity ([1]; 60 ppm in 2% sucrose): much sweeter than sucrose control
- Sensory evaluation of sweetness intensity ([1]; 60 ppm in water): very weak delayed sweetness far below 2% sucrose
- Sensory evaluation of sweetness intensity ([1]; 100 ppm in 2% sucrose): substantially sweeter than 2% sucrose control
- Sensory evaluation of sweetness intensity ([1]; 100 ppm in water): mild sweetness slightly below 2% sucrose control
- added sucrose sweetness intensity ([2]; 45 ppm in 7% sucrose): 1 ° Brix
- sweetness isointensity to sucrose ([2]; 45 ppm in 7% sucrose): 8 % sucrose
- NarDHC sample sweetness ([2]; 45 ppm in 7% sucrose vs 7% sucrose): sweeter
- NarDHC sample sweetness ([2]; 45 ppm in 7% sucrose vs 8% sucrose): isosweet
- NarDHC sample sweetness ([2]; 45 ppm in 7% sucrose vs 9% sucrose): less sweet
- NarDHC sample sweetness ([2]; 45 ppm in 7% sucrose vs 10% sucrose): less sweet
- NarDHC sample sweetness ([2]; 45 ppm in 7% sucrose vs 11% sucrose): less sweet
- added sucrose sweetness intensity ([2]; 60 ppm in 7% sucrose): 2 ° Brix
- sweetness isointensity to sucrose ([2]; 60 ppm in 7% sucrose): 9 % sucrose
- NarDHC sample sweetness ([2]; 60 ppm in 7% sucrose vs 7% sucrose): Sweeter
- NarDHC sample sweetness ([2]; 60 ppm in 7% sucrose vs 8% sucrose): Sweeter
- NarDHC sample sweetness ([2]; 60 ppm in 7% sucrose vs 9% sucrose): Isosweet
- NarDHC sample sweetness ([2]; 60 ppm in 7% sucrose vs 10% sucrose): less sweet
- NarDHC sample sweetness ([2]; 60 ppm in 7% sucrose vs 11% sucrose): less sweet
- isointensity to sucrose solution ([3]; 45 ppm in water): 0.5 % sucrose
- sample sweetness (NarDHC, 45 ppm) [3, 5]: Isosweet
- sample sweetness (NarDHC, 45 ppm) ([3]; 45 ppm in water vs 1% sucrose): less sweet
- sample sweetness (NarDHC, 60 ppm) ([3]; 60 ppm in water vs 0.5% sucrose): sweeter
- sample sweetness (NarDHC, 60 ppm) ([3]; 60 ppm in water vs 1% sucrose): sweeter
- sample sweetness (NarDHC, 60 ppm) [3, 6]: less sweet
- Result of comparison ([4]; 45 ppm in water vs 0% sucrose): weakly sweeter
- Result of comparison [4, 5]: isosweet
- Result of comparison ([4]; 45 ppm in water vs 1% sucrose): less sweet
- Result of comparison [4, 7]: notably sweeter
- Result of comparison ([4]; 50 ppm in water vs 1% sucrose): less sweet
- isointensity to sucrose solution ([4]; 55 ppm in water): 1 % sucrose
- Result of comparison ([4]; 55 ppm in water vs 0.5% sucrose): notably sweeter
- Result of comparison ([4]; 55 ppm in water vs 1% sucrose): isosweet
- Result of comparison ([4]; 60 ppm in water vs 1% sucrose): notably sweeter
- Result of comparison [4, 6]: significantly less sweet

Compound: C=C1C[C@@]23CC[C@H]4[C@@](C)(CCC[C@@]4(C)C(=O)O[C@@H]4O[C@H](CO)[C@@H](O)[C@H](O)[C@H]4O)[C@@H]2CC[C@]1(O[C@@H]1O[C@H](CO)[C@@H](O)[C@H](O)[C@H]1O[C@@H]1O[C@H](CO)[C@@H](O)[C@H](O)[C@H]1O)C3 [Stevioside]
- Sensory evaluation of sweetness intensity ([1]; 20 ppm in 2% sucrose): notably sweeter than sucrose control
- Sensory evaluation of sweetness intensity ([1]; 20 ppm in 7% sucrose): notably sweeter than sucrose control
- Sensory evaluation of sweetness intensity ([1]; 20 ppm in water (Example 9A)): barely detectable sweetness
- Sensory evaluation of sweetness intensity ([1]; 20 ppm in water (Example 9B)): barely detectable sweetness
- Sensory evaluation of sweetness intensity ([1]; 30 ppm in 2% sucrose): much sweeter than sucrose control
- Sensory evaluation of sweetness intensity ([1]; 30 ppm in 7% sucrose): notably sweeter than sucrose control
- Sensory evaluation of sweetness intensity ([1]; 30 ppm in water (Example 9A)): very weak, late onsetting sweetness
- Sensory evaluation of sweetness intensity ([1]; 30 ppm in water (Example 9B)): very weak, late onsetting sweetness
- Sensory evaluation of sweetness intensity ([1]; 40 ppm in 2% sucrose): much sweeter than sucrose control
- Sensory evaluation of sweetness intensity ([1]; 40 ppm in 7% sucrose): much sweeter than sucrose control
- Sensory evaluation of sweetness intensity ([1]; 40 ppm in water (Example 9A)): weak late onsetting sweetness
- Sensory evaluation of sweetness intensity ([1]; 40 ppm in water (Example 9B)): weak sweetness, late onsetting sweetness
- Sensory evaluation of sweetness intensity ([1]; 50 ppm in 2% sucrose): much sweeter than sucrose control
- Sensory evaluation of sweetness intensity ([1]; 50 ppm in 7% sucrose): much sweeter than sucrose control
- Sensory evaluation of sweetness intensity ([1]; 50 ppm in water (Example 9A)): weak sweetness, faster onset than 40 ppm,
- Sensory evaluation of sweetness intensity ([1]; 50 ppm in water (Example 9B)): weak sweetness, faster onset than 40 ppm,
- Sensory evaluation of sweetness intensity ([1]; 60 ppm in 2% sucrose): substantially sweeter than sucrose control
- Sensory evaluation of sweetness intensity ([1]; 60 ppm in 7% sucrose): substantially sweeter than sucrose control
- Sensory evaluation of sweetness intensity ([1]; 60 ppm in water (Example 9A)): weak sweetness, faster onset than 50 ppm,
- Sensory evaluation of sweetness intensity ([1]; 60 ppm in water (Example 9B)): weak sweetness, faster onset than 50 ppm,
- Result of comparison ([4]; 20 ppm in water vs 0% sucrose): weakly sweeter
- Result of comparison ([4]; 20 ppm in water vs 0.5% sucrose): notably less sweet
- isointensity to sucrose solution ([4]; 30 ppm in water): 0.5 % sucrose
- Result of comparison ([4]; 30 ppm in water vs 0% sucrose): weakly sweeter
- Result of comparison ([4]; 30 ppm in water vs 0.5% sucrose): isosweet
- Result of comparison ([4]; 30 ppm in water vs 1% sucrose): significantly less sweet
- Result of comparison ([4]; 40 ppm in water vs 0.5% sucrose): notably sweeter
- Result of comparison ([4]; 40 ppm in water vs 1% sucrose): less sweet
- isointensity to sucrose solution ([4]; 40 ppm in water, by interpolation): 0.75 % sucrose
- isointensity to sucrose solution ([4]; 50 ppm in water): 1 % sucrose
- Result of comparison [4, 7]: sweeter
- Result of comparison ([4]; 50 ppm in water vs 1% sucrose): isosweet
- Result of comparison ([4]; 50 ppm in water vs 1.5% sucrose): significantly less sweet
- Result of comparison ([4]; 60 ppm in water vs 1% sucrose): notably sweeter
- Result of comparison [4, 6]: less sweet
- isointensity to sucrose solution ([4]; 60 ppm in water, by interpolation): 1.25 % sucrose
- Sensory evaluation of sweetness intensity (onset, localisation, duration) (sweet sensitive subjects; 20 ppm in 2% sucrose): immediate onset, full mouth sweet, not lingering
- Sensory evaluation of sweetness intensity (onset, localisation, duration) (sweet sensitive subjects; 20 ppm in 7% sucrose): immediate onset, full mouth sweet, not lingering
- Sensory evaluation of sweetness intensity (onset, localisation, duration) (sweet sensitive subjects; 30 ppm in 2% sucrose): immediate onset, full mouth sweet, not lingering
- Sensory evaluation of sweetness intensity (onset, localisation, duration) (sweet sensitive subjects; 30 ppm in 7% sucrose): immediate onset, full mouth sweet, not lingering
- Sensory evaluation of sweetness intensity (onset, localisation, duration) (sweet sensitive subjects; 40 ppm in 2% sucrose): immediate onset, full mouth sweet, not lingering
- Sensory evaluation of sweetness intensity (onset, localisation, duration) (sweet sensitive subjects; 40 ppm in 7% sucrose): immediate onset, full mouth sweet, not lingering
